Eleven compounds from PubChem BioAssay (NCI) can be followed below.

What all share (assay): NCI tumour cell line growth inhibition, 48 h
The subject of assay [1] is SR leukemia.
Assay [2] concerns TK-10 renal.
For assay [3], the system named is UACC-62 melanoma.
Assay [4] concerns SK-OV-3 ovarian.
In assay [5] the test system is OVCAR-8 ovarian.
In assay [6] the test system is PC-3 prostate.
Assay [7] relates to A549 NSCLC.
The test system of assay [8] is NCI-H460 lung.
Assay [9] concerns HCT-116 colon.
For assay [10], the system named is SF-268 CNS.

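Cultured in 96-well plates, cells were exposed to test compound for 48 hours across five concentrations. GI50 is the concentration that inhibits growth by half. Definition used: TGI = concentration required for complete inhibition of growth.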

Take `Cc1ccc(C(=O)Nc2ccc(CN3CCN(C)CC3)c(C(F)(F)F)c2)cc1C#Cc1cncc2ncccc12`: the GI50 is 0.63 µM in [1]; 0.253 µM in assay [2]; 0.102 µM in [3]; 0.553 µM in assay [4]; 0.446 µM in assay [5]; 3.15 µM in assay [6]. In addition, the GI50 in assay [7] is 0.473 µM; in assay [8], 0.428 µM; in assay [9] it was 0.274 µM; in [10], 0.408 µM. In addition, the TGI in assay [1] turned out to be 7.78 µM; in [2], 1.41 µM; in [3] it was 1.26 µM; in assay [4], 6.63 µM; in assay [5] it was 4.96 µM; in [6], 21.4 µM. The TGI in [7] turned out to be 5.24 µM; in assay [8], 5.02 µM; in assay [9], 3.87 µM; in assay [10] it was 4.33 µM.
Take `CC(=O)OCCC/C(=C\c1ccc2ccccc2c1)[N+](=O)[O-]`: the GI50 is 1.67 µM in assay [1]; 1.58 µM in assay [2]; 1.47 µM in assay [3]; 5.26 µM in assay [4]; 2.06 µM in assay [5]; 1.93 µM in [6]. Further, the GI50 in assay [7] is 3.41 µM; in assay [8], 2.91 µM; in assay [9] it was 1.61 µM; in [10], 1.67 µM. For the same compound, the TGI in assay [1] is above 100 µM; in assay [2] it was 3.4 µM; in [3], 2.98 µM; in [4] it was 18.5 µM; in assay [5], 5.09 µM; in assay [6] it was 4.24 µM. Also, the TGI in assay [7] came out at 31.2 µM; in assay [8], 8.62 µM; in assay [9], 3.3 µM; in assay [10] it was 3.43 µM.
On to `CC(C)(C)c1ccc(C(=O)N/N=C/c2ccc(O)cc2O)cc1`, for which the GI50 in assay [1] is 0.317 µM; in assay [2], 0.73 µM; in [3] it was 0.363 µM; in assay [4], 0.589 µM; in assay [5], 0.54 µM; in assay [6], 0.706 µM. In addition, the GI50 was 0.594 µM in [7], 0.32 µM in assay [8], 0.281 µM in [9] and 0.358 µM in assay [10]. Also, the TGI in assay [1] was above 100 µM; in assay [2], above 53.5 µM; in [3], 3.2 µM; in [4], 14.7 µM; in [5], above 100 µM; in assay [6] it was 21.8 µM. The TGI stood at 35 µM in assay [7], 1.88 µM in assay [8], 11.5 µM in assay [9] and 8.19 µM in assay [10].
Consider `CC1OC(OC2C(OC3C[C@@]4(C)C(C[C@H](O)[C@H]5[C@H](C6(C)CCC(C(C)(C)O)O6)CCC54C)[C@]4(C)CC[C@@H](O)C(C)(C)C34)OC(CO)C(O)C2O)C(O)C(O)C1O` (stereo not given in full) (tested in a mixture with another compound), for which the TGI in assay [1], in assay [2], in [3], in assay [4], in assay [5] and in [6] was above 100 µM in each case. Also, the TGI in [7], in [8], in assay [9] and in assay [10] was above 100 µM each time.
For the compound `CN(C)CCCNC(=O)c1cc2c3ccccc3[nH]c2c2ncccc12`, the GI50 in assay [1] is 14.5 µM; in [2], 15.5 µM; in assay [3], 16 µM; in assay [4], 20 µM; in assay [5], 12.6 µM; in assay [6] it was 24.9 µM. Further, the GI50 is 14.1 µM in [7], 6.37 µM in [8], 9.46 µM in assay [9] and 16.7 µM in assay [10]. The TGI in assay [1] was 67.1 µM; in [2] it was above 100 µM; in assay [3] it was 30.1 µM; in [4] it was above 100 µM; in [5], above 100 µM; in assay [6] it was above 100 µM. Also, the TGI in assay [7] is above 100 µM; in [8] it was 38.6 µM; in assay [9], 49.2 µM; in assay [10], 64.1 µM.
With `Cn1cc(-c2csc(-c3cn(CCN4CCOCC4)c4ccc(F)cc34)n2)c2cccnc21`, the GI50 in assay [1] was 2.29 µM; in assay [2], 3.28 µM; in assay [3], 2.06 µM; in [4] it was 5.41 µM; in assay [5] it was 2.75 µM; in [6], 2.14 µM. The GI50 is 3.18 µM in assay [7], 3.39 µM in assay [8], 3 µM in assay [9] and 2.82 µM in [10]. The TGI in [1] worked out at 6.9 µM; in [2], 18.8 µM; in [3], 5.34 µM; in assay [4], 51.6 µM; in [5], 7.88 µM; in assay [6], 6.64 µM. Besides, the TGI in [7] is 17.5 µM; in assay [8], above 100 µM; in assay [9], 10.2 µM; in assay [10], above 100 µM.
Take `COc1ccc(S(=O)(=O)O)cc1NS(=O)(=O)c1ccc(C)cc1`: the TGI in [1], in [2], in assay [3], in [4], in assay [5] and in [6] was above 100 µM in each case. Moreover, the TGI in assay [7], in assay [8], in assay [9] and in assay [10] was above 100 µM throughout.
Take `CC(=O)OC1CCC2(C)C(CCC3C2CCC2(C)C(C4=CC(=O)OC4)CCC32)C1` (stereo not given): the GI50 in [1] is 0.468 µM; in [2] it was 5.53 µM; in assay [3], 1.01 µM; in assay [4], 19.9 µM; in assay [5], 4.2 µM; in [6], 5.07 µM. Also, the GI50 in assay [7] was 3.05 µM; in assay [8], 0.681 µM; in assay [9] it was 7.66 µM; in [10], 2.38 µM. Besides, the TGI turned out to be 10.9 µM in [1]; 22.9 µM in [2]; 2.74 µM in [3]; 49 µM in assay [4]; 36.7 µM in [5]; 25.7 µM in assay [6]. For the same compound, the TGI is 19.7 µM in assay [7], 11 µM in assay [8], above 100 µM in [9] and 10.1 µM in [10].
As to `O=C(Cc1ccc(/C=C/C(=O)c2ncc[nH]2)cc1)Nc1ccc(Br)cc1`, the GI50 was 0.608 µM in [1]; 4.31 µM in assay [2]; 2.85 µM in assay [3]; 8.2 µM in [4]; 4.04 µM in assay [5]; 2.51 µM in assay [6]. Also, the GI50 in assay [7] is 6.06 µM; in assay [8] it was 2.77 µM; in [9] it was 0.847 µM; in assay [10], 1.83 µM. For the same compound, the TGI in assay [1] is 12.9 µM; in assay [2], 12.6 µM; in [3], 6.11 µM; in assay [4] it was above 16.7 µM; in assay [5], above 16.7 µM; in [6], 10.2 µM. Also, the TGI in assay [7] is above 16.7 µM; in assay [8], 8.66 µM; in assay [9] it was 2.54 µM; in [10], above 16.7 µM.
As to `Cc1cc[c-]cc1.Fc1c[c-]c(-c2ccccn2)c(F)c1.N#CCC[PH+](CCC#N)c1ccccc1.[Pt+2]`, the GI50 is 2.22 µM in assay [1]; 4.45 µM in assay [2]; 1.79 µM in assay [3]; 8.37 µM in assay [4]; 4 µM in [5]; 3.01 µM in assay [6]. Moreover, the GI50 in [7] was 3.57 µM; in [8] it was 3.05 µM; in assay [9], 2.25 µM; in assay [10], 3.19 µM. The TGI in assay [1] was 10 µM; in assay [2], 36 µM; in assay [3] it was 4.43 µM; in assay [4], above 100 µM; in assay [5], above 100 µM; in assay [6], 20.7 µM. Besides, the TGI worked out at 71.8 µM in assay [7], 10.1 µM in [8], 5.91 µM in assay [9] and 39.5 µM in assay [10].
In the case of `Nc1c(C(=O)Nc2cccc3ccccc23)sc2nc3c(cc12)CCCC3`, the GI50 in assay [1] was 0.267 µM; in assay [2], 14.6 µM; in assay [3], 0.716 µM; in assay [4] it was 1.54 µM; in [5], 4.56 µM; in assay [6], 1.8 µM. In addition, the GI50 is 3.33 µM in assay [7], 2.98 µM in assay [8], 0.8 µM in assay [9] and 3.74 µM in [10]. For the same compound, the TGI in assay [1] is 6.38 µM; in [2], above 100 µM; in [3], above 100 µM; in assay [4], above 100 µM; in [5], above 100 µM; in assay [6], above 100 µM. Also, the TGI in [7], in assay [8], in [9] and in [10] was above 100 µM each time.
